Reference: paper PMC12782889, “A GmNRF5a–GmCERK1–GmCAK1 module mediates chitin/chitosan‐triggered immune response in soybean” (Journal of Integrative Plant Biology, 2025)

Legend:
GmNFR5a^ECDF124R = experiment: MST binding to GmNFR5a^ECD mutant F124R; set-up: species or system soybean (Glycine max); settings: ligand dp6
Excerpt: The ectodomains of GmCERK1, GmNFR5a, and mutants were cloned into the yeast expression vector pPICZαA (Thermo Fisher Scientific, Shanghai, China) through the double digestion and ligation using the restriction endonuclease EcoRI/XbaI (NEB, Suzhou, China) and T4 ligase. Then, the linearized recombinant plasmid pPICZαA‐GmCERK1 and pPICZαA‐GmNFR5a were transformed into P. pastoris X‐33. The positive colonies were selected on YPDS medium (1% w/v yeast extract, 2% w/v peptone, 2% w/v glucose, 2% w/v agar, 100 μg/mL antibiotic Zeocin (Thermo Fisher Scientific)) plates and verified by direct DNA sequencing. Protein expression was carried out initially in BMGY media (100 mM potassium phosphate pH 6.0, 1.34% w/v YNB, 4 × 10^−5% w/v biotin, 1% v/v glycerol) at 28°C with shaking (180 rpm) until the OD600 reached 2.0–6.0. The cell pellet was transferred into BMMY medium (100 mM potassium phosphate pH 6.0, 1.34% w/v YNB, 4 × 10^−5% w/v biotin, 0.5% v/v methanol) and continuously supplied with the addition of 0.5% (v/v) methanol every day for 5 d. […]
GmCERK1^ECD, GmNFR5a^ECD, and all mutants were labeled with a fluorescent dye using the Monolith Protein Labeling Kit RED‐NHS second Generation (MO‐L011). […] The data were analyzed and fitted by plotting ligand concentrations against bound fractions using the MO.Affinity Analysis v3.0.5 software. […]

[1] = system: phosphorylated MPK6/3/4 (P42/44) in soybean leaf discs; experiment: MAPK phosphorylation immunoblot in soybean leaf discs; format: cell-based, soybean (Glycine max); settings: soybean leaf discs at 5 min; anti-phospho P42/44 immunoblot; vs control dH2O
Method: (§1) To measure the oxidation burst, leaf discs (Ø 0.5 cm) collected from 2-week-old soybean (cultivar Williams) were floated overnight in 200 μL sterile H2O in a 96-well plate. The H2O was replaced with 200 μL reaction buffer containing luminol/peroxidase ([…] luminol, 10 mg/mL peroxidase) and chitooligosaccharides treatments (50 mg/L). flg22 was used as a positive control. The luminescence was measured using a GLOMAX96 microplate luminometer (Promega, Madison, WI, USA). The experiments for MAPK activation were carried out as described previously ([[…] et al., 2014]). The MAPK activation was determined by immunoblots with anti-phospho-p44/42 MAPK antibody (#4370; Cell Signaling, Boston, MA, USA).

[2] = system: soybean leaf discs (ROS burst); experiment: Luminol-based ROS burst assay in soybean leaf discs; format: cell-based, soybean (Glycine max); settings: 50 mg/L, leaf discs of soybean Williams, dH2O negative control
Method: as §1

AtCERK1^ECD = target: T1, AtCERK1^ECD (Arabidopsis thaliana, UniProt A8R7E6); set-up: method as in Cao et al., 2014; settings: isothermal titration calorimetry (ITC); ref Cao et al., 2014; read-out: K D for AtCERK1^ECD with CTOS; cited from earlier work
T1 construct: ectodomain of AtCERK1 (aa25–224); made in house; host or cells: Pichia pastoris X-33
T1 sequence (A8R7E6 25-224): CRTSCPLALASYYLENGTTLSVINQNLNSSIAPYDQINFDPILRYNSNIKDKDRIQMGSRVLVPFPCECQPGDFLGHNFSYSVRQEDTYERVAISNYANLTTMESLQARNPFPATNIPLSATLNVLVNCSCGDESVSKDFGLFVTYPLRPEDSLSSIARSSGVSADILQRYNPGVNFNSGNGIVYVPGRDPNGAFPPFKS

Row | Structure (SMILES) | interaction with GmNFR5a^ECDF124R (GmNFR5a^ECDF124R) | MAPK phosphorylation [1] | ROS burst [2] | Kd (AtCERK1^ECD) [µM]
1 | N[C@H]1[C@H](O[C@H]2[C@H](O)[C@@H](N)[C@H](O[C@H]3[C@H](O)[C@@H](N)[C@H](O[C@H]4[C@H](O)[C@@H](N)[C@H](O[C@H]5[C@H](O)[C@@H](N)[C@H](O[C@H]6[C@H](O)[C@@H](N)C(O)O[C@@H]6CO)O[C@@H]5CO)O[C@@H]4CO)O[C@@H]3CO)O[C@@H]2CO)O[C@H](CO)[C@@H](O)[C@@H]1O (stereo partly shown) [CSOS (dp6), chitosan oligosaccharide] | cannot interact | can induce MAPK activity |  | 
2 | CC(=O)N[C@H]1[C@H](O[C@H]2[C@H](O)[C@@H](NC(C)=O)[C@H](O[C@H]3[C@H](O)[C@@H](NC(C)=O)C(O)O[C@@H]3CO)O[C@@H]2CO)O[C@H](CO)[C@@H](O[C@@H]2O[C@H](CO)[C@@H](O[C@@H]3O[C@H](CO)[C@@H](O[C@@H]4O[C@H](CO)[C@@H](O)[C@H](O)[C@H]4NC(C)=O)[C@H](O)[C@H]3NC(C)=O)[C@H](O)[C@H]2NC(C)=O)[C@@H]1O (stereo partly shown) [CTOS (dp6), chitin oligosaccharide] |  |  | stronger ROS burst than that of CTOS (dp4) | 455
